Key:
HSF cell line = assay: Cytotoxicity on HSF normal cell line (SRB assay); assay type: cell-based; conditions: HSF normal human skin fibroblast; mean of three ± SD
Procedure: The dichlorobenzimidazole derivative 10h was tested in Nawah scientific—Cairo—Egypt for its cytotoxic activity on HSF cell line as stated in the Additional file A [53, 54].
6. Analysis of 10h on HSF normal cell line
Human Skin Fibroblast (HSF) was obtained from Nawah Scientific Inc., (Mokatam, Cairo, Egypt). Cells were maintained in DMEM media supplemented with […] of streptomycin, 100 units/mL of penicillin and 10% of heat-inactivated fetal bovine serum in humidified, 5% (v/v) CO2atmosphere at 37 °C. Cell viability was assessed by SRB assay. Aliquots of 100 μL cell suspension (5x10^3 cells) were in 96-well plates and incubated in complete media for 24 h. Cells were treated with another aliquot of 100 μL media containing drugs at various concentrations.
After drug exposure, cells were fixed by replacing media with 150 μL of 10% TCA and incubated at 4 °C for 1 h. The TCA solution was removed, and the cells were washed 5 times with distilled water. Aliquots of 70 μL SRB solution (0.4% w/v) were added and incubated in a dark place at room temperature for 10 min. Plates were washed 3 times with 1% acetic acid and allowed to air-dry overnight. Then, 150 μL of TRIS (10 mM) was added to dissolve protein-bound SRB stain; the absorbance was measured at 540 nm using an Infinite F50 microplate reader (TECAN, Switzerland).
6.2. Dose response curve of 10h on HSF normal cell line
Figure 66. […]

786-0 = assay: NCI 5-dose assay; assay type: cell-based; conditions: Homo sapiens; 786-0, Renal cancer
Outline: (§1)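 Five-level dose–response, 48 h, 37 °C; medium RPMI 1640 + 5% FBS + 2 mM glutamine; endpoint SRB, A515.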

A498 = assay: NCI 5-dose assay; assay type: cell-based; conditions: Homo sapiens; A498, Renal cancer
Outline: as §1

DU-145 = assay: NCI 5-dose assay; assay type: cell-based; conditions: Homo sapiens; DU-145, Prostate cancer
Outline: as §1

HL-60(TB) = assay: NCI 5-dose assay; assay type: cell-based; conditions: Homo sapiens, Leukemia
Outline: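 Cells are plated and left 24 h, and a time-zero plate is fixed at drug addition. Compound is then added for 48 h, the cells are fixed in cold TCA and stained with 0.4% SRB, and bound dye is solubilised in 10 mM Tris for reading at 515 nm.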

HT29 = assay: NCI 5-dose assay; assay type: cell-based; conditions: Homo sapiens, HT-29; HT29, Colon cancer
Outline: as §1

LOX IMVI = assay: NCI 5-dose assay; assay type: cell-based; conditions: Homo sapiens, Melanoma
Outline: as §1

SF-268 = assay: NCI 5-dose assay; assay type: cell-based; conditions: Homo sapiens; SF-268, CNS cancer
Outline: as §1

SN12C = assay: NCI 5-dose assay; assay type: cell-based; conditions: Homo sapiens, Renal cancer
Outline: as §1

SR = assay: NCI 5-dose assay; assay type: cell-based; conditions: Homo sapiens, Leukemia
Outline: as §1

T-47D = assay: NCI 5-dose assay; assay type: cell-based; conditions: Homo sapiens, T47D, Breast cancer
Outline: as §1

FGFR-1 = FGFR-1 (Homo sapiens, UniProt P11362); assay: FGFR-1 kinase assay (Kinase-Glo Max luminescence)
FGFR-1, sequence (P11362 22-822): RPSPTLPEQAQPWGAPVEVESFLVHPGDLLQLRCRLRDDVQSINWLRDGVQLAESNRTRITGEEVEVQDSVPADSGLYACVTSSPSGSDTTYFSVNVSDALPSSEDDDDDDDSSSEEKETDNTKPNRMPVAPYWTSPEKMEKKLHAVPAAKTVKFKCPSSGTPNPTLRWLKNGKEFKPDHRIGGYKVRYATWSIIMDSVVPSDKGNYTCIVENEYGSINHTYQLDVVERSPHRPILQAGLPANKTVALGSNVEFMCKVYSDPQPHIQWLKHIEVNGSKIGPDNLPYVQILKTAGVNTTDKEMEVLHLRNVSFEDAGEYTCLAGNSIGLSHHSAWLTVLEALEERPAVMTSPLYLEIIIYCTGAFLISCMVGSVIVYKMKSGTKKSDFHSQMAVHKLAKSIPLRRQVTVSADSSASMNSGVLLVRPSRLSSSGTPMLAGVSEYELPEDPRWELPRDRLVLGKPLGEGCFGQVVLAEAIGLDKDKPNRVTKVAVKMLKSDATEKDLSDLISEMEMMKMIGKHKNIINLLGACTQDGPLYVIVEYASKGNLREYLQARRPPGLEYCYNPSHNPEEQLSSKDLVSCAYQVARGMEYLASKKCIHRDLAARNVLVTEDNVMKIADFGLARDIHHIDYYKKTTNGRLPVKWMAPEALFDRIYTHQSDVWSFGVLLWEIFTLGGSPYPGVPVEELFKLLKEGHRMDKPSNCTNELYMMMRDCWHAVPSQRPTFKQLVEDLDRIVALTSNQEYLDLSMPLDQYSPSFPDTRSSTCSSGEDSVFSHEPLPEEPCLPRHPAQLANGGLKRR
Procedure: (§2) The inhibitory activity against different kinases was determined using kinase kits (BRAF WT
(§3) Glo Max luminescence kinase assay kit (Promega).
(§4) The assay was carried out according to the protocol provided by the manufacturer. A stock solution of the synthesized derivatives in 100% DMSO was prepared. Subsequently, the compounds were diluted to 10% DMSO.
(§5) A master mixture was prepared according to the number of wells. For BRAF assay each well include 6 μl of 5x Kinase Buffer 1 + 1 μl of ATP (500 μM) + 10 μl of 5X Raf substrate + 8 μl of distilled water. 1x Kinase buffer 1 was prepared by mixing 600 μl of 5x Kinase Buffer 1 with 2400 μl water to give 3 mL. Kinases were thawed on ice and were diluted with 1x Kinase Buffer 1. […]
(§6) The plate was incubated at 30 °C for 45 min. Subsequently, 50 μl of Kinase-Glo Max luminescence reagent was added to each well and the plate was covered with aluminum foil and incubated at room temperature for 15 min. Finally, the luminescence was recorded using multimode microplate reader. […]
(§7) The luminescence data were analyzed as follows. The difference between luminescence intensities in the absence of kinase (Lu t) and in the presence of kinase (Lu c) was defined as 100 %
(§8) calculated as: % activity = {(Lu t - Lu)/(Lut - Luc)} ×100%. The concentration of the test compounds required to reduce the kinase activity by 50% was determined from dose-response curves and

VEGFR-2 = VEGFR-2 (Homo sapiens, UniProt P35968); assay: VEGFR-2 kinase assay (Kinase-Glo Max luminescence)
VEGFR-2, sequence (P35968 20-1356): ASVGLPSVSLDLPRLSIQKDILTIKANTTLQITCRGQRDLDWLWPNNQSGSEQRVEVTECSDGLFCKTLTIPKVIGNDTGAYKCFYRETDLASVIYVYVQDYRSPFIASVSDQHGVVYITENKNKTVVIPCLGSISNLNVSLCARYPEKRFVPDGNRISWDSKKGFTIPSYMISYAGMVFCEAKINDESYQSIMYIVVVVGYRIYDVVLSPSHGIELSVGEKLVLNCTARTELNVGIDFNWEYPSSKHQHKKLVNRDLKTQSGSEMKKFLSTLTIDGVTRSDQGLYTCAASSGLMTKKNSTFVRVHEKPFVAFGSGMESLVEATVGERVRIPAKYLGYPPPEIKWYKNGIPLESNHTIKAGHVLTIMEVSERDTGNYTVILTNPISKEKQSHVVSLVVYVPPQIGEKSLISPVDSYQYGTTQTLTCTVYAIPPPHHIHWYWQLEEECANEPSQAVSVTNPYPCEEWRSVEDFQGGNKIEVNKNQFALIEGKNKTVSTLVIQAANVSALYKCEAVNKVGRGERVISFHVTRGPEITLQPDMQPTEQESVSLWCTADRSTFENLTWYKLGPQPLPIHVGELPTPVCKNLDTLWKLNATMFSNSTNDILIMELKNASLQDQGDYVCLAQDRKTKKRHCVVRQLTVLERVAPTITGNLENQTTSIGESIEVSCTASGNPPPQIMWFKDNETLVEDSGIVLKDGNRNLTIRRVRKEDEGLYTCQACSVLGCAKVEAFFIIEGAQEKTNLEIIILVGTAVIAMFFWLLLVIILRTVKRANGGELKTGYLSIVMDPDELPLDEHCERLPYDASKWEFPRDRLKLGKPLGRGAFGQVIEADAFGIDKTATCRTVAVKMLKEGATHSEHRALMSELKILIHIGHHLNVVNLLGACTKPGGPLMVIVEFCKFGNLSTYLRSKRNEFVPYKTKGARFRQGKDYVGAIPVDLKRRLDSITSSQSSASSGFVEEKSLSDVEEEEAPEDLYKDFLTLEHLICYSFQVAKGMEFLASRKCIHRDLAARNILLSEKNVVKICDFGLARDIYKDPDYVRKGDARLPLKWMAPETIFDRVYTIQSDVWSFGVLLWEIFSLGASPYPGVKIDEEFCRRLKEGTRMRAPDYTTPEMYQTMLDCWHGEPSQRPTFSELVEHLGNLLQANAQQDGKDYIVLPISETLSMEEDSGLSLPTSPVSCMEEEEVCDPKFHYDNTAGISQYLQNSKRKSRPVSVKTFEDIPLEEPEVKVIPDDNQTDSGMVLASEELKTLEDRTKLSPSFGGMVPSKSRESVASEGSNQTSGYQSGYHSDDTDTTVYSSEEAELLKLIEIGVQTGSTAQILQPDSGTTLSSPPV
Procedure: as §2, §3, §4, §5, §6, §7, §8

SMILES | IC50 (HSF cell line) | GI50 (786-0) | GI50 (A498) | GI50 (DU-145) | GI50 (HL-60(TB)) | GI50 (HT29) | GI50 (LOX IMVI) | GI50 (SF-268) | GI50 (SN12C) | GI50 (SR) | GI50 (T-47D) | IC50 (FGFR-1) | IC50 (VEGFR-2)
COC(=O)COc1ccc(C=NNC(=O)Cn2c(-c3ccc(OC)cc3)nc3cc(Cl)c(Cl)cc32)cc1 [Compound 10h, Methyl-2-(4-((2-(2-(5,6-dichloro-2-(4-methoxyphenyl)-1H-benzo[d]imidazol-1-yl)acetyl)hydrazono)methyl)phenoxy)acetate] | > 100 µM | 3.01 µM | 15.4 µM | 1.67 µM | > 82.5 µM | 1.79 µM | 6.83 µM | 10.1 µM | 2.95 µM | 2.8 µM | 2.68 µM | > 10 µM | 1.52 ± 0.14 µM
COC(=O)COc1ccc(C=NNC(=O)Cn2c(-c3ccc(OC)cc3)nc3cc(Cl)c(Cl)cc32)cc1OC [Compound 10p, Methyl-2-(4-((2-(2-(5,6-dichloro-2-(4-methoxyphenyl)-1H-benzo[d]imidazol-1-yl)acetyl)hydrazono)methyl)-2-methoxyphenoxy)acetate] |  | 2.21 µM | 11.6 µM | 1.9 µM | > 72.5 µM | 1.46 µM | 31.2 µM | 32.4 µM | 2.2 µM | 2.15 µM | 4.47 µM |  | 
COC(=O)COc1cc(C=NNC(=O)Cn2c(-c3ccc(OC)cc3)nc3cc(Cl)c(Cl)cc32)ccc1OC [Compound 10o, Methyl-2-(5-((2-(2-(5,6-dichloro-2-(4-methoxyphenyl)-1H-benzo[d]imidazol-1-yl)acetyl)hydrazono)methyl)-2-methoxyphenoxy)acetate] |  | 17.9 µM | > 100 µM | 4.79 µM | > 100 µM | 12.9 µM | > 100 µM | > 100 µM | 7.92 µM | 3 µM | 12.7 µM |  | 
